In US20250296916A1, “BICYCLIC PIPERAZINONES AND THERAPEUTIC USES THEREOF” (Cytokinetics, Inc., priority 2022, published 2025):

The compounds below were run on rabbit skeletal myofibrils (approximately 90% fast fibers) (assay: Activation of fast skeletal myofibrils (PUMA coupled-enzyme ATPase assay)). Conditions: concentration at which the compound increased the enzymatic activity by 40%; calcium at pCa25; PM12 buffer pH 6.8.
Type: biochemical
Procedure: Preparation of fast skeletal myofibrils: Rabbit skeletal myofibrils were prepared based upon the method of Herrmann et al. (Biochem. 32 (28): 7255-7263 (1993). Myofibrils were prepared from rabbit psoas muscle purchased from Pel-Freez Biologicals (Arkansas) within 2 days of ordering, stored on ice. Minced muscle was homogenized in 10 volumes of ice-cold “standard” buffer (50 mM Tris, pH 7.4, 0.1 M KOAc, 5 mM KCl, 2 mM dithiothreitol (DTT), 0.2 mM phenylmethylsulfonyl fluoride (PMSF), 10 μM leupeptin, 5 μM pepstatin, and 0.5 mM sodium azide) containing 5 mM ethylenediaminetetraacetic acid (EDTA) and 0.5% Triton X-100 using an Omni-Macro homogenizer. Myofibrils were recovered by low speed centrifugation (3000 rpm for 10 minutes) and washed 2 times in the Triton X-100 containing buffer to ensure removal of cellular membrane. Following the Triton washes, myofibrils were washed 3 times in “standard” buffer containing 2 mM magnesium acetate. A final wash in assay buffer (12 mM piperazine-1,4-bis(2-ethanesulfonic acid) (PIPES), pH 6.8, 60 mM KCl, 1 mM DTT) was performed and brought to 10% sucrose for flash freezing in liquid nitrogen and storage at −80° C.
Activation of Fast Skeletal Myofibrils: Fast fiber activators were identified by measuring the enzymatic activity of muscle myofibril preparations using the proprietary PUMA (trademark) (see, e.g., U.S. Pat. Nos. 6,410,254, 6,743,599, 7,202,051, and 7,378,254) assay system. Myofibril preparations consisted of rabbit skeletal muscle (approximately 90% fast fibers) that had been mechanically homogenized and washed with a detergent (Triton X-100) to remove cellular membranes. This preparation retained all of the sarcomeric components in a native conformation and the enzymatic activity was still regulated by calcium. Compounds were tested using a myofibril suspension and a level of calcium sufficient to increase enzymatic activity of the myofibrils to 25% of their maximal rate (termed pCa25). Enzymatic activity was tracked via a pyruvate kinase and lactate dehydrogenase-coupled enzyme system. This assay regenerates myosin-produced ADP into ATP by oxidizing NADH, producing an absorbance change at 340 nm. The buffering system was 12 mM PIPES, 2 mM MgCl2, 1 mM DTT at pH 6.8 (PM12 buffer). […] In Table 3, “Example Compound” refers to the compound labeled with the same number in Table 2.

AC1.4 | SMILES
0.27 µM | CCC[C@H]1C(=O)Nc2ccccc2N1C(=O)c1ccc(N(C)Cc2ccccc2)nc1 [Compound 39, (S)-4-(6-(benzyl(methyl)amino)nicotinoyl)-3-propyl-3,4-dihydroquinoxalin-2(1H)-one]
2.37 µM | CCC[C@H]1C(=O)Nc2ccccc2N1C(=O)c1ccc(N2CC(OC)C2)nc1 [Compound 40, (S)-4-(6-(3-methoxyazetidin-1-yl)nicotinoyl)-3-propyl-3,4-dihydroquinoxalin-2(1H)-one]
1.63 µM | CCC[C@H]1C(=O)Nc2ccccc2N1C(=O)c1ccc(N2CCC(F)C2)nc1 (stereo partly drawn) [Compound 41, (3S)-4-(6-(3-fluoropyrrolidin-1-yl)nicotinoyl)-3-propyl-3,4-dihydroquinoxalin-2(1H)-one]
2.34 µM | CCC[C@H]1C(=O)Nc2ccccc2N1C(=O)c1ccc(N2CC(F)(F)C2)nc1 [Compound 42, (S)-4-(6-(3,3-difluoroazetidin-1-yl)nicotinoyl)-3-propyl-3,4-dihydroquinoxalin-2(1H)-one]
2.78 µM | CCC[C@H]1C(=O)Nc2ccccc2N1C(=O)c1ccc(N2CCC(F)(F)C2)nc1 [Compound 43, (S)-4-(6-(3,3-difluoropyrrolidin-1-yl)nicotinoyl)-3-propyl-3,4-dihydroquinoxalin-2(1H)-one]
2.61 µM | CCC[C@H]1C(=O)Nc2ccccc2N1C(=O)c1ccc(N(C)CCC(F)(F)F)nc1 [Compound 44, (S)-4-(6-(methyl(3,3,3-trifluoropropyl)amino)nicotinoyl)-3-propyl-3,4-dihydroquinoxalin-2(1H)-one]
0.2 µM | CCC[C@H]1C(=O)Nc2ccccc2N1C(=O)c1cn(C)nc1C [Compound 45, (S)-4-(1,3-dimethyl-1H-pyrazole-4-carbonyl)-3-propyl-3,4-dihydroquinoxalin-2(1H)-one]
0.47 µM | CCC[C@H]1C(=O)Nc2ccccc2N1C(=O)NC1CCCCC1 [Compound 46, (S)-N-cyclohexyl-3-oxo-2-propyl-3,4-dihydroquinoxaline-1(2H)-carboxamide]
1.51 µM | CCC[C@H]1C(=O)Nc2ccccc2N1C(=O)Nc1cccnc1 [Compound 47, (S)-3-oxo-2-propyl-N-(pyridin-3-yl)-3,4-dihydroquinoxaline-1(2H)-carboxamide]
1.08 µM | CCC[C@H]1C(=O)Nc2ccccc2N1C(=O)Nc1ccncc1 [Compound 48, (S)-3-oxo-2-propyl-N-(pyridin-4-yl)-3,4-dihydroquinoxaline-1(2H)-carboxamide]
2.08 µM | CCC[C@H]1C(=O)Nc2ccccc2N1C(=O)NCc1ccccc1 [Compound 49, (S)-N-benzyl-3-oxo-2-propyl-3,4-dihydroquinoxaline-1(2H)-carboxamide]
2.36 µM | CCC[C@H]1C(=O)Nc2ccccc2N1C(=O)N[C@@H](C)c1ccccc1 [Compound 50, (S)-3-oxo-N-((S)-1-phenylethyl)-2-propyl-3,4-dihydroquinoxaline-1(2H)-carboxamide]
0.48 µM | CCC[C@H]1C(=O)Nc2ccccc2N1C(=O)NCC1CCCCC1 [Compound 51, (S)-N-(cyclohexylmethyl)-3-oxo-2-propyl-3,4-dihydroquinoxaline-1(2H)-carboxamide]
0.58 µM | CCC[C@H]1C(=O)Nc2ccccc2N1C(=O)N1CCc2ccccc21 [Compound 52, (S)-4-(indoline-1-carbonyl)-3-propyl-3,4-dihydroquinoxalin-2(1H)-one]
0.55 µM | CCC[C@H]1C(=O)Nc2ccccc2N1C(=O)Nc1ccccc1OC [Compound 53, (S)-N-(2-methoxyphenyl)-3-oxo-2-propyl-3,4-dihydroquinoxaline-1(2H)-carboxamide]
0.31 µM | CCC[C@H]1C(=O)Nc2ccccc2N1C(=O)Nc1cccc(OC)c1 [Compound 54, (S)-N-(3-methoxyphenyl)-3-oxo-2-propyl-3,4-dihydroquinoxaline-1(2H)-carboxamide]
